Measurements published in ChEMBL document CHEMBL5505958, “Optimization of sequence and chiral content enhances therapeutic potential of tilapia piscidin peptides” (Eur J Med Chem, 2024).
Converted amounts (≈) assume the structure as drawn. The source made the active and inactive calls. No cut-off for these calls is given here.

Tests used:
Erythrocyte [1] = test: Hemolytic activity in human Red blood cells assessed as hemolysis at 200 uM incubated for 1 hrs; format: toxicity, cell-based
Klebsiella pneumoniae [2] = test: Additive antibacterial activity against Klebsiella pneumoniae BAA 2473 assessed as fractional inhibitory concentration index in presence of meropenem by checkerboard assay; format: functional
[3] = Toxicity in C57BL/6 mouse assessed as increase in creatinine level upto 12.5 mg/kg, iv measured for 7 days; format: organism-based; settings: in vivo, 168 h, time 7 day
[4] = Toxicity in C57BL/6 mouse assessed as effect on GOT level in liver upto 7.5 mg/kg, iv measured for 7 days; format: organism-based; settings: in vivo, 168 h, time 7 day
[5] = Toxicity in C57BL/6 mouse assessed as mortality at 5 to 10 mg/kg, iv measured for 7 days; format: organism-based; settings: in vivo, 168 h, dose 5-10 mg/kg, time 7 day
Klebsiella pneumoniae [6] = test: Antibacterial activity against Klebsiella pneumoniae BAA 2473 assessed as doxycycline MIC; format: functional
[7] = Toxicity in C57BL/6 mouse assessed as change in body weight at 15 mg/kg, iv measured for 7 days; format: organism-based; settings: in vivo, 168 h, time 7 day
Klebsiella oxytoca [8] = test: Antibacterial activity against Klebsiella oxytoca 13985 assessed as inhibition of bacterial growth incubated for 16 to 20 hrs; format: functional; settings: time 16-20 hrs
Klebsiella pneumoniae [9] = test: Synergistic antibacterial activity against Klebsiella pneumoniae BAA 2473 assessed as fractional inhibitory concentration index in presence of ciprofloxacin by checkerboard assay; format: functional
Klebsiella pneumoniae [10] = test: Antibacterial activity against Klebsiella pneumoniae BAA 2473 assessed as inhibition of bacterial growth in presence of ciprofloxacin; format: functional
Pseudomonas aeruginosa = test: Bactericidal activity against Pseudomonas aeruginosa 19660 assessed as inhibition of bacterial growth incubated for 16 to 20 hrs; format: functional; settings: time 16-20 hrs
Lipopolysaccharide (LPS) = test: Displacement of BODIPY-TR-cadaverine from Klebsiella pneumoniae BAA 2473 lipopolysaccharide (LPS) assessed as increase in fluorescence intensity at 1.56 uM by fluorescence spectrophotometric analysis; format: subcellular
Klebsiella pneumoniae [11] = test: Bactericidal activity against Klebsiella pneumoniae TL 297 assessed as inhibition of bacterial growth incubated for 16 to 20 hrs; format: functional; settings: time 16-20 hrs
Klebsiella pneumoniae [12] = test: Antibacterial activity against Klebsiella pneumoniae BAA 2473 assessed as ciprofloxacin MIC; format: functional
Klebsiella pneumoniae [13] = test: Antibacterial activity against Klebsiella pneumoniae TL 297 assessed as inhibition of bacterial growth incubated for 16 to 20 hrs; format: functional; settings: time 16-20 hrs
Klebsiella pneumoniae [14] = test: Antimicrobial activity against drug-resistant Klebsiella pneumoniae BAA 2473 infected in C57BL/6 mouse assessed as reduction in bacterial load at 5 mg/kg, po administered for 2 hrs and measured at 24 hrs; format: functional, organism-based; settings: time 26.0 hrs
[15] = Toxicity in C57BL/6 mouse assessed as effect on BUN level upto 10 mg/kg, iv measured for 7 days; format: organism-based; settings: in vivo, 168 h, time 7 day
[16] = Toxicity in C57BL/6 mouse assessed as mortality at 20 mg/kg, iv measured for 2 days; format: organism-based; settings: in vivo, time 2 day
[17] = Toxicity in C57BL/6 mouse assessed as survival rate at 12.5 to 15 mg/kg, iv measured for 7 days; format: organism-based; settings: in vivo, dose 12.5-15 mg/kg, time 7 day
Klebsiella pneumoniae [18] = test: Antibacterial activity against Klebsiella pneumoniae BAA 2473 assessed as meropenem MIC; format: functional
Klebsiella oxytoca [19] = test: Bactericidal activity against Klebsiella oxytoca 13985 assessed as inhibition of bacterial growth incubated for 16 to 20 hrs; format: functional; settings: time 16-20 hrs
Klebsiella pneumoniae [20] = test: Antibacterial activity against Klebsiella pneumoniae BAA 2473 assessed as bacterial eradication measured at 10 hrs; format: functional, organism-based
Klebsiella pneumoniae [21] = test: Antibacterial activity against Klebsiella pneumoniae BAA 2473 assessed as bacterial eradication measured at 2 hrs; format: functional
Staphylococcus aureus [22] = test: Antibacterial activity against Staphylococcus aureus 10780 assessed as inhibition of bacterial growth incubated for 16 to 20 hrs; format: functional; settings: time 16-20 hrs
Staphylococcus aureus [23] = test: Bactericidal activity against Staphylococcus aureus 10780 assessed as inhibition of bacterial growth incubated for 16 to 20 hrs; format: functional; settings: time 16-20 hrs
Erythrocyte [24] = test: Hemolytic activity in human Red blood cells assessed as hemolysis at 3.13 uM incubated for 1 hrs; format: toxicity, cell-based
Klebsiella pneumoniae [25] = test: Antimicrobial activity against drug-resistant Klebsiella pneumoniae BAA 2473 infected in C57BL/6 mouse assessed as fold reduction in bacterial load at 5 mg/kg, po administered for 2 hrs and measured at 24 hrs; format: functional
[26] = Toxicity in C57BL/6 mouse assessed as change in GPT level in liver at 15 mg/kg, iv measured for 7 days; format: organism-based; settings: in vivo, 168 h, time 7 day

In the case of `CC(C)C[C@H](NC(=O)[C@H](CCCCN)NC(=O)[C@@H](CCCCN)NC(=O)[C@H](CC(C)C)NC(=O)[C@@H](N)Cc1ccccc1)C(=O)N[C@H](CC(C)C)C(=O)N[C@@H](CCCCN)C(=O)N[C@@H](C)C(=O)N[C@H](CC(C)C)C(=O)N[C@@H](Cc1ccccc1)C(=O)N[C@@H](CO)C(=O)N[C@H](C)C(=O)N1CCC[C@H]1C(=O)N[C@@H](CCCCN)C(=O)N[C@H](C)C(=O)N[C@@H](CC(C)C)C(=O)N[C@@H](CCCCN)C(=O)N[C@H](CCCNC(=N)N)C(=O)N[C@@H](CC(C)C)C(=O)N[C@@H](CC(C)C)C(=O)N[C@H](CCCNC(=N)N)C(=O)N[C@@H](CCCNC(=N)N)C(=O)N[C@@H](CCCNC(=N)N)C(=O)N[C@H](CCCNC(=N)N)C(=O)N[C@@H](CCCNC(=N)N)C(=O)O`, the Activity (Erythrocyte [1]) is reported as “Non-Toxic”, the “fractional inhibitory concentration index (FICI)” value (Klebsiella pneumoniae [2]) is reported as 1 and the Activity [3] is reported as “Non-Toxic”. The Activity [4] was “Non-Toxic”, the Activity [5] was “Non-Toxic” and the MIC (Klebsiella pneumoniae [6]) was 6.25 µM. The Activity [7] was “Non-Toxic”, the MIC (Klebsiella oxytoca [8]) was 1.56 µM (≈ 4.8 µg/mL) and the “fractional inhibitory concentration index (FICI)” value (Klebsiella pneumoniae [9]) was 1.003. For the same molecule, the MIC (Klebsiella pneumoniae [10]) was 0.097 µM, the MBC (Pseudomonas aeruginosa) was 3.13 µM (≈ 9.64 µg/mL) and the Activity (Lipopolysaccharide (LPS)) was “Active”. It also gave an MBC (Klebsiella pneumoniae [11]) of 6.25 µM (≈ 19.2 µg/mL), an MIC (Klebsiella pneumoniae [12]) of 0.195 µM and an MIC (Klebsiella pneumoniae [13]) of 12.5 µM (≈ 38.5 µg/mL). The Activity (Klebsiella pneumoniae [14]) was “inactive”, the Activity [15] was “Non-Toxic” and the mortality at 48 h [16] was 100%. The survival at 168 h [17] was 80%, the MIC (Klebsiella pneumoniae [18]) was 3.12 µM and the MBC (Klebsiella oxytoca [19]) was 1.56 µM (≈ 4.8 µg/mL). For the same molecule, the Activity (Klebsiella pneumoniae [20]) was “Active”.

H-FIHHIIGGLFSAGKAIHRLIRRRRR-OH showed an Activity (Klebsiella pneumoniae [21]) of 100%, an MIC (Staphylococcus aureus [22]) of 0.78 µM and an MBC (Staphylococcus aureus [23]) of 0.78 µM. For the same molecule, the Activity (Erythrocyte [24]) was “Non-Toxic”.

With `CC(C)C[C@H](NC(=O)[C@@H](C)NC(=O)[C@@H](CCCCN)NC(=O)[C@H](CC(C)C)NC(=O)[C@@H](CC(C)C)NC(=O)[C@@H](CCCCN)NC(=O)[C@H](CCCCN)NC(=O)[C@@H](CC(C)C)NC(=O)[C@H](N)Cc1ccccc1)C(=O)N[C@H](Cc1ccccc1)C(=O)N[C@H](CO)C(=O)N[C@@H](C)C(=O)N1CCC[C@@H]1C(=O)N[C@H](CCCCN)C(=O)N[C@@H](C)C(=O)N[C@H](CC(C)C)C(=O)N[C@H](CCCCN)C(=O)N[C@@H](CCCNC(=N)N)C(=O)N[C@H](CC(C)C)C(=O)N[C@H](CC(C)C)C(=O)N[C@@H](CCCNC(=N)N)C(=O)N[C@H](CCCNC(=N)N)C(=O)N[C@H](CCCNC(=N)N)C(=O)N[C@@H](CCCNC(=N)N)C(=O)N[C@@H](CCCNC(=N)N)C(=O)O` the Activity (Erythrocyte [1]) was “Non-Toxic”, the “fractional inhibitory concentration index (FICI)” value (Klebsiella pneumoniae [2]) was 1.003 and the MIC (Staphylococcus aureus [22]) was 12.5 µM (≈ 38.5 µg/mL). The MIC (Klebsiella pneumoniae [6]) was 1.56 µM, the MBC (Staphylococcus aureus [23]) was 6.25 µM (≈ 19.2 µg/mL) and the MIC (Klebsiella oxytoca [8]) was 3.13 µM (≈ 9.64 µg/mL). For the same molecule, the “fractional inhibitory concentration index (FICI)” value (Klebsiella pneumoniae [9]) was 0.562, the MIC (Klebsiella pneumoniae [10]) was 1.56 µM and the MBC (Pseudomonas aeruginosa) was 3.13 µM (≈ 9.64 µg/mL). The Activity (Lipopolysaccharide (LPS)) was “Active”, the MBC (Klebsiella pneumoniae [11]) was 6.25 µM (≈ 19.2 µg/mL) and the MIC (Klebsiella pneumoniae [12]) was 50 µM. For the same molecule, the MIC (Klebsiella pneumoniae [13]) was 6.25 µM (≈ 19.2 µg/mL), the Activity (Klebsiella pneumoniae [14]) was “Active” and the “fold change (FC)” value (Klebsiella pneumoniae [25]) was about 10. For the same molecule, the MIC (Klebsiella pneumoniae [18]) was 400 µM, the Activity [26] was “Non-Toxic” and the MBC (Klebsiella oxytoca [19]) was 3.13 µM (≈ 9.64 µg/mL). For the same molecule, the Activity (Klebsiella pneumoniae [20]) was “Active”.
